Experimental data taken from PubChem BioAssay AID2060617 (Molecular Pharmacology Branch, DTP, NCI, 2025).

System: 485368-065-R4-J2-PDC spheroids with HUVEC/MSC, viability
Assay: Anticancer human tumor 485368-065-R4-J2-PDC patient-derived pancreatic carcinoma cell line growth inhibition [CLK]
Conditions: for IC50: curve of first compound; for viability, T/C: stronger effect = lower value
Method in brief: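 Patient-derived tumor cells grown as complex spheroids with HUVEC endothelial cells and mesenchymal stem cells, treated with drug combinations. Concentrations descend in half-log steps from near clinical Cmax, or from 10 microM if Cmax unknown.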
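Further: spheroids exposed to compounds for seven days.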
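Wherever viability, T/C is given: 100% = DMSO vehicle control wells.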

CC1COCCN1c1cc(C2(S(C)(=N)=O)CC2)nc(-c2ccnc3[nH]ccc23)n1 (configuration not stated) + CN1CCN(c2cc(C(=O)Nc3cc4cc(-c5cnn(C)c5)ccc4cn3)ccn2)CC1
IC50 (second compound 0.0316 µM): > 10 µM
IC50 (second compound 0.1 µM): > 10 µM
IC50 (second compound 0.316 µM): 6.83 µM
IC50 (second compound 1 µM): < 0.0316 µM
IC50 (second compound 3.16 µM): < 0.0316 µM
IC50 (second compound 10 µM): < 0.0316 µM
viability, T/C (second compound 0.0316 µM, first compound 0.0316 µM): 102%
viability, T/C (second compound 0.0316 µM, first compound 0.1 µM): 111%
viability, T/C (second compound 0.0316 µM, first compound 0.316 µM): 102%
viability, T/C (second compound 0.0316 µM, first compound 1 µM): 119%
viability, T/C (second compound 0.0316 µM, first compound 3.16 µM): 118%
viability, T/C (second compound 0.0316 µM, first compound 10 µM): 107%
viability, T/C (second compound 0.1 µM, first compound 0.0316 µM): 107%
viability, T/C (second compound 0.1 µM, first compound 0.1 µM): 119%
viability, T/C (second compound 0.1 µM, first compound 0.316 µM): 113%
viability, T/C (second compound 0.1 µM, first compound 1 µM): 120%
viability, T/C (second compound 0.1 µM, first compound 3.16 µM): 103%
viability, T/C (second compound 0.1 µM, first compound 10 µM): 90.9%
viability, T/C (second compound 0.316 µM, first compound 0.0316 µM): 88.5%
viability, T/C (second compound 0.316 µM, first compound 0.1 µM): 88.3%
viability, T/C (second compound 0.316 µM, first compound 0.316 µM): 74.8%
viability, T/C (second compound 0.316 µM, first compound 1 µM): 75.2%
viability, T/C (second compound 0.316 µM, first compound 3.16 µM): 60.3%
viability, T/C (second compound 0.316 µM, first compound 10 µM): 44.4%
viability, T/C (second compound 1 µM, first compound 0.0316 µM): 1%
viability, T/C (second compound 1 µM, first compound 0.1 µM): 1.87%
viability, T/C (second compound 1 µM, first compound 0.316 µM): 1.95%
viability, T/C (second compound 1 µM, first compound 1 µM): 1.83%
viability, T/C (second compound 1 µM, first compound 3.16 µM): 1.71%
viability, T/C (second compound 1 µM, first compound 10 µM): 2.07%
viability, T/C (second compound 3.16 µM, first compound 0.0316 µM): 1.39%
viability, T/C (second compound 3.16 µM, first compound 0.1 µM): 2.33%
viability, T/C (second compound 3.16 µM, first compound 0.316 µM): 2.68%
viability, T/C (second compound 3.16 µM, first compound 1 µM): 2.72%
viability, T/C (second compound 3.16 µM, first compound 3.16 µM): 3.59%
viability, T/C (second compound 3.16 µM, first compound 10 µM): 1.89%
viability, T/C (second compound 10 µM, first compound 0.0316 µM): 1.49%
viability, T/C (second compound 10 µM, first compound 0.1 µM): 2.62%
viability, T/C (second compound 10 µM, first compound 0.316 µM): 2.44%
viability, T/C (second compound 10 µM, first compound 1 µM): 1.98%
viability, T/C (second compound 10 µM, first compound 3.16 µM): 1.76%
viability, T/C (second compound 10 µM, first compound 10 µM): 3.15%
